# Measurements taken from patent US8835466B2, “Synthesis and uses of pyroglutamic acid derivatives” (Prodimed, S.A., priority 2006, dated 2014).
# Several values for one entry are separate records, joined by “and”; a condition that tells them apart may be missing. Equal values may be shown once. Read-outs that look alike come from different tables or passages of the source.
# How the values were obtained:
# [1] = system: CT26.wt (colon carcinoma); experiment: Effect of isomer 4 (9d) on tumour growth, CT26.wt (Example 10); format: in vivo; settings: CT26.wt (high dose colon carcinoma); Balbc/cByl mice; 250 ng/mice i.p. days 6, 7 and 14
# Description: (§1) The following assays were made in order to check the effect of isomer 4 (9d) on different tumours following methods and materials analogous to those used in examples 8 and 9, In all cases sterile physiologic saline (Grifols, Barcelona, Spain) was used as placebo. Isomer 4 (9d) was tested at the dose levels indicated in Table 13 on days 6, 7 and 14 after tumour inoculation. In all cases the vehicle was physiologic saline and the treatments were given by intraperitoneal route. The volume inoculated was 0.2 mL/animal.
# [2] = system: CT26.CL25 (colon carcinoma); experiment: Effect of isomer 4 (9d) on tumour growth, CT26.CL25 (Example 10); format: in vivo; settings: CT26.CL25 (Low dose colon carcinoma); Balbc/cByl mice; 250 ng/mice i.p. days 6, 7 and 14
# Description: as §1
# Mm5MT (Breast tumour) = experiment: Effect of isomer 4 (9d) on tumour growth, Mm5MT (Example 10); format: in vivo; settings: C3H/HeN mice, 250 ng/mice i.p. days 6, 7 and 14
# Description: as §1
# KLN 205 (lung carcinoma) = experiment: Effect of isomer 4 (9d) on tumour growth, KLN 205 (Example 10); format: in vivo; settings: KLN 205 (high dose lung carcinoma); DBA/2NCrI mice; 260 ng/mice i.p. days 6, 7 and 14
# Description: as §1
# ASB XIV (lung carcinoma) = experiment: Effect of isomer 4 (9d) on tumour growth, ASB XIV (Example 10); format: in vivo; settings: Balb/cAnNCrI mice, 260 ng/mice i.p. days 6, 7 and 14
# Description: as §1
# Lewis (lung carcinoma) = experiment: Effect of isomer 4 (9d) on tumour growth, Lewis (Example 10); format: in vivo; settings: Lewis (low dose lung carcinoma); C57BL/6NCrI mice; 260 ng/mice i.p. days 6, 7 and 14
# Description: as §1
# P-815 (Mastocytoma) = experiment: Effect of isomer 4 (9d) on tumour growth, P-815 (Example 10); format: in vivo; settings: DBA/2NCrI mice, 250 ng/mice i.p. days 6, 7 and 14
# Description: as §1
# healthy mice = format: in vivo; settings: for WEIGHT LOSS: weight, MEAN / WEIGHT LOSS: weight, MEDIAN: n 5
# Description: This assay was made in order to perform a preliminary study to address the toxic effect of Isomer 4 (9d) used at a high dose on healthy mice. Its eventual toxicity will be compared with placebo.
# Isomer 4 (9d) at 0.7 mg/mL in sterile physiological saline.
# The vehicle in which Isomer 4 was diluted was sterile physiological saline for injection (Grifols, Barcelona, Spain) and sterile distilled water for injection (Grifols, Barcelona, Spain)
# The treatments were given i.p. or s.c.
# Every mouse was observed daily during 10 days.
# Three measures were performed:
# 3. Weight. This was measured and expressed in grammes.
# 4. Lethality. This was expressed as percentage of survival.
# 5. Toxicity. This was checked on alive mice for the following parameters and score criteria:
# A case-control study was performed with treated and control mice in order to determine whether differences between Isomer 4 and administration of placebo were present. The U-test of Mann Withney was chosen for being one of the better known non-parametrical tests, anyway, results for this test are equivalent both to those of Wilcoxon's sum of ranges and Kruskal-Wallis two-groups test.
# [3] = system: CD11b and Ly6G positive leukocyte populations; experiment: Phenotype leukocyte analysis by flow cytometry (CD11b, Ly6G) in peripheral blood (Example 16); format: in vivo, Balb/c mice
# Description: This Example was carried out with the aim at assessing eventual differences in the leukocyte population percentage among the treated mice by flow cytometry. The counts were carried out by using a flow cytometer after labelling membrane proteins (CD11B and Ly6G) with specific antibodies to said proteins. CD11B (also known as Mac-1) marker is expressed in monocyte populations whereas Ly6G (also known as GR-1) is expressed in granulocyte populations. Both markers (CD11b and Ly6G) are expressed in neutrophile populations.
# Isomer 4 (compound 9d) at 65 μg/mL in sterile physiological saline.
# Equipment Laminar flood hood, Flow cytometer, Adjustable pipettes, Sterile syringes, Sterile needles, EDTA stelile tubes, Plastic tubes. Reagents • Anaesthetic solution • Sterile PBS (Sigma, St. Louis, Mo., USA) • Physiological saline (Grifols, Barcelona, Spain) • Rat anti-mouse CD11b-PE (Beckman Coulter, Fullerton, Calif., USA) • Rat anti-mouse Ly6G-FITC (Beckman Coulter, Fullerton, Calif., USA) • Optylise C (Beckman Coulter, Fullerton, Calif., USA) Dose, Vehicle, Route and Volume Administration Dose Isomer 4 (compound 9d) was tested at the dose levels of 250 ng administered on days 0, and 7. Vehicle The vehicle in which Isomer 4 was diluted is physiological saline. Administration Route and Volume
# The treatments were given by intraperitoneal route. The volume inoculated was 200 μl/animal.
# Balb/c mice were distributed into 2 experimental groups:
# Three days after the last dose of the treatment, murine blood was isolated. It was obtained directly from intracardiac punction. Previously, mice were anesthetized intramuscularly.
# Blood was mixed with the monoclonal antibodies described above.
# After 20 minutes of incubation, Optylise C solution was added into the samples to lise erythrocytes population.
# Finally, samples were diluted ½ with 1× sterile PBS and checked by flow cytometry.
# Percentages of each population analyzed were expressed as single values and as the mean±SD from each experimental group.
# [4] = Group A1, 1.25 mg i.p., C57BL/6NCrI, day 0 after the beginning of the treatment
# [5] = Group A1, 1.25 mg i.p., C57BL/6NCrI, day 1 after the beginning of the treatment
# [6] = Group A1, 1.25 mg i.p., C57BL/6NCrI, day 2 after the beginning of the treatment
# [7] = Group A1, 1.25 mg i.p., C57BL/6NCrI, day 3 after the beginning of the treatment
# [8] = Group A1, 1.25 mg i.p., C57BL/6NCrI, day 4 after the beginning of the treatment
# [9] = Group A1, 1.25 mg i.p., C57BL/6NCrI, day 5 after the beginning of the treatment
# [10] = Group A1, 1.25 mg i.p., C57BL/6NCrI, day 6 after the beginning of the treatment
# [11] = Group A1, 1.25 mg i.p., C57BL/6NCrI, day 7 after the beginning of the treatment
# [12] = Group A1, 1.25 mg i.p., C57BL/6NCrI, day 8 after the beginning of the treatment
# [13] = Group A1, 1.25 mg i.p., C57BL/6NCrI, day 9 after the beginning of the treatment
# [14] = Group A1, 1.25 mg i.p., C57BL/6NCrI, day 10 after the beginning of the treatment
# [15] = Balb/C mice, two doses (once per week) 250 ng i.p., flow cytometry three days after the last dose
# [16] = group mean, n = 4, 250 ng i.p. on days 0 and 7, blood three days after the last dose
# [17] = individual mice, 250 ng i.p. on days 0 and 7, blood three days after the last dose, listed as 9d
compound,measurement,setting,value
"Br.N[C@]1(C[n+]2ccccc2)C[C@H](C(=O)O)NC1=O.[Br-] (single isomer, unassigned; isomer 4) [isomer 4, 3S,5R-1-(3-Amino-5-carboxy-2-oxopyrrolidin-3-ylmethyl)pyridinium bromide hidrobromide]",Tumour growth inhibition?,[1],YES
same,Tumour growth inhibition?,[2],YES
same,Tumour growth inhibition?,Mm5MT (Breast tumour),YES
same,Tumour growth inhibition?,KLN 205 (lung carcinoma),YES
same,Tumour growth inhibition?,ASB XIV (lung carcinoma); ASB XIV (high dose lung carcinoma),YES
same,Tumour growth inhibition?,ASB XIV (lung carcinoma); ASB XIV (low dose lung carcinoma),YES
same,Tumour growth inhibition?,Lewis (lung carcinoma),YES
same,Tumour growth inhibition?,P-815 (Mastocytoma),YES
same,"Differences on weight between groups (Isomer 4 vs placebo), p (Mann-Whitney U test)","healthy mice; C57BL/6 mice, every day scored over 10 days",> 0.05
same,WEIGHT LOSS: weight of each mouse,"healthy mice; Group A1, 1.25 mg i.p., C57BL/6NCrI, individual animals 1-5, day 8 after the beginning of the treatment",26 g (3×) and 20 g and 28 g
same,"WEIGHT LOSS: weight, MEAN",healthy mice; [4],26.4 g
same,"WEIGHT LOSS: weight, MEDIAN",healthy mice; [4],27 g
same,"WEIGHT LOSS: weight, MEAN",healthy mice; [5],25.4 g
same,"WEIGHT LOSS: weight, MEDIAN",healthy mice; [5],26 g
same,"WEIGHT LOSS: weight, MEAN",healthy mice; [6],25.4 g
same,"WEIGHT LOSS: weight, MEDIAN",healthy mice; [6],26 g
same,"WEIGHT LOSS: weight, MEAN",healthy mice; [7],26 g
same,"WEIGHT LOSS: weight, MEDIAN",healthy mice; [7],26 g
same,"WEIGHT LOSS: weight, MEAN",healthy mice; [8],25.8 g
same,"WEIGHT LOSS: weight, MEDIAN",healthy mice; [8],26 g
same,"WEIGHT LOSS: weight, MEAN",healthy mice; [9],24.8 g
same,"WEIGHT LOSS: weight, MEDIAN",healthy mice; [9],26 g
same,"WEIGHT LOSS: weight, MEAN",healthy mice; [10],25 g
same,"WEIGHT LOSS: weight, MEDIAN",healthy mice; [10],26 g
same,"WEIGHT LOSS: weight, MEAN",healthy mice; [11],25 g
same,"WEIGHT LOSS: weight, MEDIAN",healthy mice; [11],26 g
same,"WEIGHT LOSS: weight, MEAN",healthy mice; [12],25.2 g
same,"WEIGHT LOSS: weight, MEDIAN",healthy mice; [12],26 g
same,"WEIGHT LOSS: weight, MEAN",healthy mice; [13],25 g
same,"WEIGHT LOSS: weight, MEDIAN",healthy mice; [13],26 g
same,"WEIGHT LOSS: weight, MEAN",healthy mice; [14],24.8 g
same,"WEIGHT LOSS: weight, MEDIAN",healthy mice; [14],26 g
same,"Deaths or toxicity (systemic), in words","healthy mice; Group A1, dose exceeded 50,000-fold the total amount of the therapeutic dose",No deaths or toxicity were observed
same,"Local toxicity, in words","healthy mice; Group C1, dose exceeded 500-fold the normal concentration of the therapeutic dose",Local toxicity was neither observed
same,"Tolerance by mice, in words",healthy mice; doses that greatly exceed its therapeutic range,well tolerated
same,CD11b positive cells in peripheral blood compared with control mice,[3]; [15],increment
same,CD11b+Ly6G positive cells in peripheral blood compared with control mice,[3]; [15],increment
same,Ly6G positive cells in peripheral blood compared with control mice,[3]; [15],increment
same,"CD11b+ cells, PBL (Peripheral Blood), flow cytometry, Media",[3]; [16],36.95%
same,"CD11b+Ly6G+ cells, PBL (Peripheral Blood), flow cytometry, Media",[3]; [16],31.05%
same,"Ly6G+ cells, PBL (Peripheral Blood), flow cytometry, Media",[3]; [16],34.775%
same,"CD11b+ cells, PBL (Peripheral Blood), flow cytometry",[3]; [17],35.5% and 44% and 35.4% and 32.9%
same,"CD11b+Ly6G+ cells, PBL (Peripheral Blood), flow cytometry",[3]; [17],29.7% and 32.3% and 28.5% and 33.7%
same,"Ly6G+ cells, PBL (Peripheral Blood), flow cytometry",[3]; [17],27% and 37.6% and 33.3% and 41.2%
